Results reported in article PMC4314633, “Homo-β-amino acid containing MBP(85–99) analogs alleviate experimental autoimmune encephalomyelitis” (Scientific Reports, 2015).
One block for each molecule: values may come before it. Where a SMILES comes first, the peptide text is derived from it. [ ]: non-standard residue; d: D form. ξ: configuration not given here. ξβ3hE = NC(CCC(=O)O)CC(=O)O; ξβ3hK = NCCCCC(N)CC(=O)O; ξβ3hA = CC(N)CC(=O)O

Columns and labels:
α-chymotrypsin = α-chymotrypsin (Bos taurus, UniProt P00766); experiment: Proteolysis assay with chymotrypsin, RP-HPLC; format: in vitro ADME; conditions: chymotrypsin 0.1 μg/ml, peptide 1 mg/ml, PBS with 0.01% sodium azide, 37°C
Method: Aliquots were drawn at various time points and analyzed by high pressure liquid chromatography (HPLC, Shimadzu). Degradation mixtures were resolved on a C18 column (Phenomenix) using acetonitrile/water with 0.1% trifluroacetic acid (TFA) as a solvent system at a flow rate of 0.4 ml/minute. Analogs un-cleaved in the reaction mixture were quantified in terms of percent peak area. […] Aliquots were drawn and analyzed on a polyacrylamide gel (15%).

[1] = tested on: experimental autoimmune encephalomyelitis in SJL/J mice; experiment: EAE treatment setup in SJL/J mice; format: in vivo, mouse; conditions: treatment: 100 μg subcutaneously daily for a week
Method: Animals were perfused intra-cardially with ice cold PBS and 4% paraformaldehyde (PFA) sequentially under deep anesthesia. Thereafter intact spinal cord tissue was dissected out, equilibrated with 30% sucrose and embedded in tissue freezing media (Polyfreez, Polysciences). Subsequently, transverse sections (15 μM thick) were cut through lumbar region in a cryotome (Thermo) and collected in storage buffer (30% glycerol and ethylene glycol in PBS). Sections were retrieved from storage buffer, transferred into citrate buffer (10 mM, pH 6.0) and incubated at 65°C for 30 minutes for antigen retrieval. After 30 minute incubation period, sections were equilibrated with PBS and blocked using 3% bovine serum albumin and 1% normal serum for 2 hours at room temperature. […]

[2] = tested on: experimental autoimmune encephalomyelitis in SJL/J mice; experiment: EAE prevention (pre-treatment) setup in SJL/J mice; format: in vivo, mouse; conditions: prevention: 400 μg in IFA a week prior to immunization with MBP(85–99)
Method: EAE was induced and assessed as described previously. SJL/J (female; 6–8 week old) were injected subcutaneously with 100 μg of MBP(85–99) (two immunizations spaced a week apart) emulsified in complete Freund's adjuvant (CFA). Immunized mice were also given an intra-peritoneal injection of pertussis toxin (200 ng) on day 0 and 2. Severity of clinical disability was scored on a scale of 0 to 5, where, 0, no detectable signs of EAE; 1, complete tail paralysis; 2, wobbly gait; 3, complete hind limb paralysis; 4, complete hind and fore limb paralysis or moribund; 5, dead.

RRMS = conditions: cited from earlier work
Description: However, therapeutic potencies of such antigen-specific modalities has always been moderate due to their peptidic nature e.g. in the case of GA it is only 20–30 percent. Expectedly, it is their minimal stability in proteolytic milieu and thus inefficient presentation on antigen presenting cells (APCs) which perhaps gets translated into their reduced efficacy.

percent hydrolyzed (α-chymotrypsin; in 6 hours, RP-HPLC percent peak area): > 50%
Molecule: CC(C)[C@H](NC(=O)[C@H](CCCCN)NC(=O)[C@@H]1CCCN1C(=O)[C@H](CCCCN)NC(=O)[C@@H](N)CCC(=O)O)C(=O)N[C@@H](CCC(=O)O)C(=O)N[C@@H](C)C(=O)N[C@@H](Cc1ccc(O)cc1)C(=O)N[C@@H](CCCCN)C(=O)N[C@@H](C)C(=O)N[C@@H](C)C(=O)N[C@@H](C)C(=O)N[C@@H](C)C(=O)N1CCC[C@H]1C(=O)N[C@@H](C)C(=O)O [J5]

Molecule: glatiramer acetate [GA]
duration of therapeutic effect post-treatment [1]: ~ 1.7 weeks
reduction of disease severity (cumulative disability score) [1]: 30–35%
reduction of disease severity (cumulative disability score) [2]: 40–50%
therapeutic potency (RRMS): 20–30%

time up to which detectable in the reaction mixture (α-chymotrypsin; RP-HPLC): ≤ 2 days
percent remaining intact in reaction mixture (α-chymotrypsin; after 12 hours, RP-HPLC percent peak area, n ≥ 3): > 90%
Molecule: CC(CC(=O)O)NC(=O)CC(C)NC(=O)CC(C)NC(=O)CC(C)NC(=O)CC(CCCCN)NC(=O)[C@H](Cc1ccc(O)cc1)NC(=O)[C@H](C)NC(=O)[C@H](CCC(=O)O)NC(=O)[C@@H](NC(=O)[C@H](CCCCN)NC(=O)[C@@H]1CCCN1C(=O)CC(CCCCN)NC(=O)CC(N)CCC(=O)O)C(C)C (stereo partly drawn) [S18] (H-[ξβ3hE][ξβ3hK]PKVEAY[ξβ3hK][ξβ3hA][ξβ3hA][ξβ3hA][ξβ3hA]-OH)
